Test results from patent US20120270929A1, “MODULATION OF TTC39 EXPRESSION TO INCREASE HDL” (ISIS Pharmaceuticals, Inc., priority 2009, published 2012).
Oligonucleotides are written 5' to 3', each unit as a sugar letter and its base; * is a phosphorothioate linkage, no mark a phosphodiester; rarer units and linkages stand in square brackets, end groups in braces. Plain capitals give the bases only. e = 2'-O-(2-methoxyethyl) (MOE); [5mC] = 5-methylcytosine; d = 2'-deoxy (DNA)

Assays:
murine TTC39C mRNA [1] = experiment: Antisense inhibition of mouse TTC39C in mouse primary hepatocytes, single dose; type: cell-based; conditions: 8,000 nM antisense oligonucleotide, electroporation, approximately 24 hours, TTC39C mRNA by real-time PCR (RTS3266), relative to untreated control cells
Procedure: Antisense oligonucleotides were designed targeting a TTC39C nucleic acid and were tested for their effects on TTC39C mRNA in vitro. Cultured mouse primary hepatocytes at a density of 30,000 cells per well were transfected by electroporation with 8,000 nM antisense oligonucleotide. After a treatment period of approximately 24 hours, RNA was isolated from the cells and TTC39C mRNA levels were measured by quantitative real-time PCR. Mouse primer probe set RTS3266 (forward sequence […], designated herein as SEQ ID NO: 140; reverse sequence […], designated herein as SEQ ID NO: 141; probe sequence […], designated herein as SEQ ID NO: 142). TTC39C mRNA levels were adjusted according to total RNA content, as measured by RIBOGREEN®. Results are presented as percent inhibition of TTC39C, relative to untreated control cells.
The chimeric antisense oligonucleotides targeting TTC39C were designed as 5-10-5 MOE gapmers. The gapmers are 20 nucleotides in length, wherein the central gap segment is comprised of ten 2′-deoxynucleotides and is flanked on both sides (in the 5′ and 3′ directions) by wings comprising five nucleotides each. Each nucleotide in the 5′ wing segment and each nucleotide in the 3′ wing segment has a 2′-MOE modification. The internucleoside linkages throughout each gapmer are phosphorothioate (P═S) linkages. All cytosine residues throughout each gapmer are 5-methylcytosines. “Mouse Target start site” indicates the 5′-most nucleotide to which the gapmer is targeted in the mouse gene sequence.

murine TTC39C mRNA [2] = experiment: Dose-dependent antisense inhibition of murine TTC39C in mouse primary hepatocytes; type: cell-based; conditions: electroporation, ~16 h; for IC50: mouse primary hepatocytes
Procedure: Thirty antisense oligonucleotides were selected from the study described in Example 8 and further tested at various doses in mouse primary hepatocytes. Cells were plated at a density of 30,000 cells per well and transfected using electroporation with 500 nM, 1,000 nM, 2,000 nM, 4,000 nM, and 8,000 nM concentrations of antisense oligonucleotide, as specified in Table 30. After a treatment period of approximately 16 hours, RNA was isolated from the cells and TTC39C mRNA levels were measured by quantitative real-time PCR. Murine primer probe set RTS3266 was used to measure mRNA levels. TTC39C mRNA levels were adjusted according to total RNA content, as measured by RIBOGREEN®. Results are presented as percent inhibition of TTC39C, relative to untreated control cells.

Row | Substance | % inhibition (murine TTC39C mRNA [1]) | percent inhibition of TTC39C mRNA (murine TTC39C mRNA [2]; 500.0 nM) | percent inhibition of TTC39C mRNA (murine TTC39C mRNA [2]; 1000.0 nM) | percent inhibition of TTC39C mRNA (murine TTC39C mRNA [2]; 2000.0 nM) | percent inhibition of TTC39C mRNA (murine TTC39C mRNA [2]; 4000.0 nM) | percent inhibition of TTC39C mRNA (murine TTC39C mRNA [2]; 8000.0 nM) | IC50 (murine TTC39C mRNA [2])
1 | ISIS 474515: 5-10-5 MOE gapmer antisense oligonucleotide targeting murine TTC39C (antisense eT*e[5mC]*e[5mC]*e[5mC]*eT*dG*dA*dA*dG*d[5mC]*d[5mC]*dG*dT*dT*dG*eT*eT*eG*eA*eG) | 96% | 56% | 62% | 79% | 91% | 94% | 
2 | ISIS 474516: 5-10-5 MOE gapmer antisense oligonucleotide targeting murine TTC39C (antisense eT*eT*eA*eG*eT*dG*dG*dA*d[5mC]*dT*dA*dT*dG*dA*dT*eT*eT*e[5mC]*eT*eG) | 94% | 34% | 61% | 71% | 88% | 95% | 800 nM
3 | ISIS 474517: 5-10-5 MOE gapmer antisense oligonucleotide targeting murine TTC39C (antisense e[5mC]*e[5mC]*eT*e[5mC]*eG*dA*dA*dT*dG*dT*d[5mC]*dA*dT*d[5mC]*dA*eT*eG*eG*e[5mC]*eG) | 98% | 60% | 67% | 89% | 95% | 97% | 
4 | ISIS 474518: 5-10-5 MOE gapmer antisense oligonucleotide targeting murine TTC39C (antisense eG*eT*eA*eG*eT*d[5mC]*dT*dT*dT*dA*dA*dG*dT*d[5mC]*dA*eT*e[5mC]*eG*e[5mC]*eA) | 96% | 61% | 73% | 90% | 94% | 96% | 
5 | ISIS 474521: 5-10-5 MOE gapmer antisense oligonucleotide targeting murine TTC39C (antisense eG*eG*e[5mC]*eT*eT*dT*d[5mC]*d[5mC]*dT*dA*dA*dG*dG*dA*dT*e[5mC]*e[5mC]*eA*e[5mC]*e[5mC]) | 97% | 46% | 63% | 84% | 92% | 97% | 500 nM
6 | ISIS 474523: 5-10-5 MOE gapmer antisense oligonucleotide targeting murine TTC39C (antisense eG*eG*eT*e[5mC]*eA*d[5mC]*d[5mC]*d[5mC]*d[5mC]*dT*dT*d[5mC]*dG*dG*d[5mC]*e[5mC]*eA*e[5mC]*eA*eA) | 98% | 72% | 80% | 94% | 96% | 97% | 
7 | ISIS 474532: 5-10-5 MOE gapmer antisense oligonucleotide targeting murine TTC39C (antisense eG*eT*eT*eG*eT*dG*d[5mC]*d[5mC]*d[5mC]*d[5mC]*dA*dT*d[5mC]*d[5mC]*dA*e[5mC]*eA*eT*e[5mC]*eA) | 99% | 51% | 64% | 84% | 94% | 97% | 400 nM
8 | ISIS 474535: 5-10-5 MOE gapmer antisense oligonucleotide targeting murine TTC39C (antisense eT*e[5mC]*e[5mC]*eA*e[5mC]*dT*dT*d[5mC]*dA*dT*dG*dG*d[5mC]*dA*dA*eG*e[5mC]*eT*eT*eG) | 96% | 18% | 35% | 61% | 83% | 93% | 1500 nM
9 | ISIS 474538: 5-10-5 MOE gapmer antisense oligonucleotide targeting murine TTC39C (antisense eT*eA*eG*e[5mC]*eA*d[5mC]*dG*d[5mC]*dA*dT*dA*dT*dG*dG*d[5mC]*eG*eG*eG*eA*e[5mC]) | 96% | 51% | 58% | 82% | 88% | 92% | 400 nM
10 | ISIS 474540: 5-10-5 MOE gapmer antisense oligonucleotide targeting murine TTC39C (antisense e[5mC]*e[5mC]*eA*e[5mC]*eT*dG*dG*dG*dA*dG*dT*dT*dT*dA*dT*e[5mC]*eA*e[5mC]*eT*eG) | 98% | 43% | 65% | 81% | 92% | 97% | 500 nM
11 | ISIS 474543: 5-10-5 MOE gapmer antisense oligonucleotide targeting murine TTC39C (antisense e[5mC]*e[5mC]*eA*eG*eG*dT*dG*dG*d[5mC]*dT*dT*dT*dG*dG*d[5mC]*eT*eT*eG*eG*eG) | 98% | 77% | 88% | 88% | 88% | 94% | 
12 | ISIS 474589: 5-10-5 MOE gapmer antisense oligonucleotide targeting murine TTC39C (antisense eT*e[5mC]*e[5mC]*eG*eA*dA*dA*dT*d[5mC]*dG*d[5mC]*dT*d[5mC]*dA*dG*e[5mC]*e[5mC]*eT*eG*e[5mC]) | 100% | 95% | 96% | 97% | 99% | 100% | 
13 | ISIS 474592: 5-10-5 MOE gapmer antisense oligonucleotide targeting murine TTC39C (antisense eG*eA*eA*eG*e[5mC]*dA*dT*dA*dT*dT*dG*dA*dT*dG*d[5mC]*e[5mC]*eA*eG*e[5mC]*e[5mC]) | 93% | 24% | 45% | 71% | 84% | 92% | 1200 nM
14 | ISIS 474595: 5-10-5 MOE gapmer antisense oligonucleotide targeting murine TTC39C (antisense eG*eT*e[5mC]*eA*eT*d[5mC]*dG*d[5mC]*dA*d[5mC]*dG*d[5mC]*d[5mC]*dA*dA*e[5mC]*eT*eG*e[5mC]*eA) | 97% | 80% | 87% | 95% | 98% | 98% | 
